Measurements taken from patent publication US11571483B2, “E2F reporter melanoma cells” (THOMAS JEFFERSON UNIVERSITY, priority 2015, dated 2023).

Legend:
[1] = system: E2F; assay: E2F reporter assay in vitro (firefly luciferase normalized to actin); format: cell-based, human; details: 1205Lu reporter cells; palbociclib (0.5 μM), 48 hours
Source text: CR=complete response. […] CR=complete response.
Tumor cells were also transduced with tdTomato fluorescent protein to selectively monitor tumor growth. […] In FIG. 8 1205Lu reporter cells were transfected with silencing RNA to control sequence, CDK4, CDK6 or both CDK4 and CDK6. […] Firefly luciferase activity was normalized to actin levels in each sample.

[2] = system: 1205Lu xenografts; assay: 1205Lu reporter xenograft model, tumor volume / response; format: in vivo, immunodeficient nude mice
Source text: (§1) FIG. 7 A depicts the E2F reporter system for measuring the efficacy of CDK4/6 and MEK inhibitors in vivo. Firefly luciferase is expressed under the control of E2F response elements. […] CR=complete response. FIG. 7D depicts analysis of E2F reporter activity normalized to tdTomato fluorescent protein activity in 1205Lu xenografts. […] CR=complete response. FIG. 7G depicts representative images of 1205Lu xenografts taken from mice fed vehicle, MEK inhibitor, CDK4/6 inhibitor and combo-laced chow analyzed for Ki67. FIG. 7H depicts quantitation of Ki67 positive cells (% of total cells) taken from mice fed vehicle (n=2), MEK inhibitor (n=4), CDK4/6 inhibitor (n=4) and combo laced chow (n=4).
(§2) Indeed, in a performed xenograft mouse model, 1205Lu reporter cells were intradermally injected into immunodeficient nude mice.
(§3) Mice were retreated with combination regimen at day 67. FIG. 9B depicts modulation of E2F activity in combination treated mice following drug removal and retreatment. […] FIG. 9C depicts RPPA analysis on resistant tumors.

[3] = system: E2F; assay: E2F reporter activity in 1205Lu xenografts (luciferase normalized to tdTomato); format: in vivo, immunodeficient nude mice; details: drug-laced chow
Source text: as §1, §2, §3

CC(=O)c1c(C)c2cnc(Nc3ccc(N4CCNCC4)cn3)nc2n(C2CCCC2)c1=O [palbociclib]
reduction in firefly luciferase activity normalized to actin levels [1]: 60%

O=C(NOC[C@H](O)CO)c1ccc(F)c(F)c1Nc1ccc(I)cc1F [PD0325901]
complete regressions ([2]; MEK inhibitor chow (mouse #6)): one complete regression | tumor regrowth on treatment ([2]; by treatment day 44): dramatic tumor regrowth | tumor volume, initial response ([2]; drug-laced chow): initially maintained tumor volumes at a static level | E2F reporter activity in tumors on treatment [3]: strong E2F reactivation
